# In patent publication US12234245B2, “Sulfonimidamide compounds as inhibitors of interleukin-1 activity” (Genentech, Inc., priority 2018, dated 2025):
# Target: NLRP3 inflammasome (Homo sapiens, UniProt Q96P20)
# Assay: THP-1 ASC-GFP speck assay
# Format: cell-based
# Design: host or cells: THP-1 ASC-GFP cells, PMA-differentiated, LPS-primed, nigericin-stimulated
# Conditions: THP-1 ASC-GFP cells, PMA differentiated, LPS primed, 10 μM nigericin; read-out: THP1 ASC Speck IC50
# Experimental: THP-1 ASC-GFP cell line was purchased from Invivogen, San Diego, for inflammasome activation assay. THP-1 ASC-GFP cells stably express a 37.6 kDa ASC::GFP fusion protein that enables monitoring of spec formation by microscopy after activation of NLRP3 dependent inflammasome pathway. Cells were maintained at a density of 600,000 cells/mL in growth media consisting of RPMI 1640, 2 mM L-glutamine, 25 mM HEPES and 10% heat inactivated fetal bovine serum at 37° C. and 5% CO2. Cells were passaged every 3-4 days and used for assays for up to 20 passages.
# THP-1 ASC-GFP cells were collected by centrifuging cells at 800 RPM for 5 minutes. Cell culture supernatant was removed and cells were re-suspended in fresh media at density of 1×10^6 cells/mL in assay media consisting of RPMI 1640, 2 mM L-glutamine, 25 mM HEPES and 10% heat inactivated fetal bovine serum. Phorbol 12-myristate 13-acetate (PMA) (Invivogen, tlrl-pma) was added to the cell suspension at a final concentration of 500 ng/ml and mixed thoroughly. 40,000 cells were added per well of a 384 well plate and differentiated into macrophages overnight at 37° C. and 5% CO2. Cells were primed with 1 μg/mL of lipopolysaccharide (Invivogen Ultrapure lipopolysaccharide from E. coli, tlrl-3pelps) in assay media for 3 hours at 37° C. and 5% CO2. After priming, media was removed and THP-1 ASC-GFP cells were preincubated with serially diluted test compounds with starting concentration of 40 μM followed by 2-fold dilution for a 20-point curve or vehicle (DMSO) for 30 min in assay media at 37° C. and 5% CO2. Cells were then stimulated with 10 μM nigericin (Invivogen, tlrl-nig-5) for 90 min at 37° C. and 5% CO2 to activate NLRP3 dependent inflammasome pathway and spec formation. After stimulation, cells were fixed with 4.8% paraformaldehyde (Electron Microscopy Sciences #15710-S) and incubated at room temperature for 15 min. Cells were then washed 3-times with 100 μL of phosphate buffered saline and permeabilized in the presence of premeablization/block buffer for 20 min at room temperature. Cells were then washed 3-times with 100 μL phosphate buffered saline and incubated for 1 hr at room temperature in the presence of hoechst. After staining with Hoechst, cells were washed 3-times with 100 μL phosphate buffered saline and imaged for ASC spec formation.
# THP-1 ASC-GFP cells were imaged in 488 and Hoechst channels. Hoechst channel was used for cell count and 488 channel was used to identify number of GFP ASC specks in imaged fields. Percentage of cells with a spec was calculated by dividing the number of GFP positive spots by total number of cells.
# NLRP3 inflammasome, sequence (Q96P20 whole entry): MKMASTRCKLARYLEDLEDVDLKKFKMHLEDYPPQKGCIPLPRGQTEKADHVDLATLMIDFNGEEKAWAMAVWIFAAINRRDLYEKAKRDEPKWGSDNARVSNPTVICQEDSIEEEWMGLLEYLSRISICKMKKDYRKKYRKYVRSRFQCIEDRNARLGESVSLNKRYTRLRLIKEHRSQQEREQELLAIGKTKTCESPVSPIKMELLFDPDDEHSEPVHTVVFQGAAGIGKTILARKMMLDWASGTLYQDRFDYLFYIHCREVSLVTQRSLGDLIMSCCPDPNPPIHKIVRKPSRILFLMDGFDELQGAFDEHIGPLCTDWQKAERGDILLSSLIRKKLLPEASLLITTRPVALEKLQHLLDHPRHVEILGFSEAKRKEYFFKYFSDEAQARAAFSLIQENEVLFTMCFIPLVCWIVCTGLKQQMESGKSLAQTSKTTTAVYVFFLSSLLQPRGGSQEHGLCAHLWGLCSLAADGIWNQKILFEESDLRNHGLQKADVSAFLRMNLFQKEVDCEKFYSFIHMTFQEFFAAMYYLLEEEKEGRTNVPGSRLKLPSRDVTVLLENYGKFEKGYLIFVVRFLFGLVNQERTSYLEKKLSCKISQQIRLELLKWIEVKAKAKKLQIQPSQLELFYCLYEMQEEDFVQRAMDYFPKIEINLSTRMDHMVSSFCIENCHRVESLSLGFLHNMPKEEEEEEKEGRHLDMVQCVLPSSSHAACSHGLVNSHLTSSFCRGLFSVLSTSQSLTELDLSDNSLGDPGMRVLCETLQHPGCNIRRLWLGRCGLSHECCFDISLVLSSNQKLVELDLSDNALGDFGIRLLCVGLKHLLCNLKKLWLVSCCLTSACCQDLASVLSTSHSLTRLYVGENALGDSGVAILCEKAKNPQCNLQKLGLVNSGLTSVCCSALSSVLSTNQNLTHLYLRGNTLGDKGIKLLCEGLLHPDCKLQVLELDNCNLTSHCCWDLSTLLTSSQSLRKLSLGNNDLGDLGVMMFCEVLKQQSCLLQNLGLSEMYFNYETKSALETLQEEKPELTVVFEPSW
row,Structure (SMILES),IC50
1,"NS(=O)(=NC(=O)Nc1c2c(cc3c1CC3)CCC2)c1cnn2c1OCCC2 (single isomer, unassigned) [Example 141]",1600 nM
2,"COC1CCOc2c(S(N)(=O)=NC(=O)Nc3c4c(cc5c3CCC5)CCC4)cnn2C1 (single isomer, unassigned) [Example 89]",> 20000 nM
3,"CCn1nc(C(C)C)c(NC(=O)N=S(N)(=O)c2cnn3c2OCCC3)c1C(C)C (single isomer, unassigned) [Example 98]",> 20000 nM
4,"COC1COc2c(S(=O)(=NC(=O)Nc3c4c(cc5c3CCC5)CCC4)NC(C)=O)cnn2C1 (single isomer, unassigned) [Example 116]",2100 nM
5,"CC1(C)COc2c(S(N)(=O)=NC(=O)Nc3c4c(cc5c3CC(F)C5)CCC4)cnn2C1 (single isomer, unassigned) [Example 156]",13 nM
6,"CC1CCc2cc3c(c(NC(=O)N=S(N)(=O)c4cnn5c4OCCC5)c21)CCC3 (single isomer, unassigned) [Example 128]",1700 nM
7,"NS(=O)(=NC(=O)Nc1c2c(cc3c1CCC3)CCC2)c1cnn2c1NCCC2 (single isomer, unassigned) [Example 73]",> 20000 nM
8,"COc1cc(C(C)C)c(NC(=O)N=S(N)(=O)c2cnn3c2OCCC3)c(C(C)C)n1 (single isomer, unassigned) [Example 102]",5100 nM
9,"CC1CCc2cc3c(c(NC(=O)N=S(N)(=O)c4cnn5c4OCC5)c21)CCC3 (single isomer, unassigned) [Example 145]",3800 nM
10,"CC1(C)COc2c(S(N)(=O)=NC(=O)Nc3c4c(cc5c3CC(F)C5)CCC4)cnn2C1 (single isomer, unassigned) [Example 154]",1800 nM
11,"CNC1CCn2ncc(S(N)(=O)=NC(=O)Nc3c4c(cc5c3CCC5)CCC4)c2OC1 (single isomer, unassigned) [Example 131]",920 nM
12,"CC1CCn2ncc(S(N)(=O)=NC(=O)Nc3c4c(cc5c3CCC5)CCC4)c2OC1 (single isomer, unassigned) [Example 79]",1000 nM
13,"CC1CCc2cc3c(c(NC(=O)N=S(N)(=O)c4cnn5c4OCC5)c21)CCC3 (single isomer, unassigned) [Example 144]",56 nM
14,"COc1cc(-c2ccc3c(c2NC(=O)N=S(N)(=O)c2cnn4c2OCCC4)CCO3)ccn1 (single isomer, unassigned) [Example 157]",710 nM
15,"CNC1CCOc2c(S(N)(=O)=NC(=O)Nc3c4c(cc5c3CCC5)CCC4)cnn2C1 (single isomer, unassigned) [Example 105]",9900 nM
16,"COC1CCn2ncc(S(N)(=O)=NC(=O)Nc3c4c(cc5c3CCC5)CCC4)c2OC1 (single isomer, unassigned) [Example 86]",> 20000 nM
17,"COC1CN([C@@H]2COc3c([S@@](=O)(=NC(=O)Nc4c5c(c(F)c6c4CCC6)CCC5)NC#N)cnn3C2)C1 (stereo in doubt) [Example 63, (R,6S)—N-cyano-N′-((8-fluoro-1,2,3,5,6,7-hexahydro-s-indacen-4-yl)carbamoyl)-6-(3-methoxyazetidin-1-yl)-6,7-dihydro-5H-pyrazolo[5,1-b][1,3]oxazine-3-sulfonimidamide, ammonia]",140 nM
18,"CNC1COc2c(S(N)(=O)=NC(=O)Nc3c4c(c(F)c5c3CCC5)CCC4)cnn2C1 (single isomer, unassigned) [Example 83]",8 nM
19,"CNC1CCn2ncc(S(N)(=O)=NC(=O)Nc3c4c(cc5c3CCC5)CCC4)c2OC1 (single isomer, unassigned) [Example 130]",14000 nM
20,"CO[C@@H]1CCOc2c([S@](=O)(=NC(=O)Nc3c4c(cc5c3CCC5)CCC4)NC#N)cnn2C1 (single isomer, unassigned) [Example 121]",2700 nM
21,"COc1cc(-c2ccc3c(c2NC(=O)N=S(N)(=O)c2cnn4c2OCCC4)CCO3)ccn1 (single isomer, unassigned) [Example 158]",25 nM
22,"NS(=O)(=NC(=O)Nc1c2c(cc3c1CCC3)CCC2)c1cnn2c1C(F)(F)CCC2 (single isomer, unassigned) [Example 134]",> 20000 nM
23,"CC(C)c1nn(CC2CC2)c(C(C)C)c1NC(=O)N=S(N)(=O)c1cnn2c1OCCC2 (single isomer, unassigned) [Example 114]",4400 nM
24,"CC1(C)COc2c(S(N)(=O)=NC(=O)Nc3c4c(cc5c3CC(F)C5)CCC4)cnn2C1 (single isomer, unassigned) [Example 155]",8 nM

row,Structure (SMILES),IC50
1,"CC1CCOc2c(S(N)(=O)=NC(=O)Nc3c4c(cc5c3CCC5)CCC4)cnn2C1 (single isomer, unassigned) [Example 65]",340 nM
2,"NS(=O)(=NC(=O)Nc1c2c(cc3c1CCC3)CCC2)c1cnn2c1OCC2 (single isomer, unassigned) [Example 125]",1700 nM
3,"CN(C)[C@@H]1COc2c([S@](=O)(=NC(=O)Nc3c4c(c(F)c5c3CCC5)CCC4)NC#N)cnn2C1 (single isomer, unassigned) [Example 111]",100 nM
4,"COc1cc(C(C)C)c(NC(=O)N=S(N)(=O)c2cnn3c2OCC(C)(C)C3)c(C(C)C)n1 (single isomer, unassigned) [Example 76]",2600 nM
5,"NS(=O)(=NC(=O)Nc1c2c(cc3c1CCC3)CCC2)c1cnn2c1COCCC2 (single isomer, unassigned) [Example 61]",> 20000 nM
6,"CC1CCc2cc3c(c(NC(=O)N=S(N)(=O)c4cnn5c4OCC(C)(C)C5)c21)CCC3 (single isomer, unassigned) [Example 137]",28 nM
7,"NS(=O)(=NC(=O)Nc1c2c(cc3c1CCC3)CCC2)c1cnn2c1C(F)(F)CCC2 (single isomer, unassigned) [Example 133]",2800 nM
8,"COC1COc2c(S(=O)(=NC(=O)Nc3c4c(cc5c3CCC5)CCC4)NC(C)=O)cnn2C1 (single isomer, unassigned) [Example 115]",2500 nM
9,"CNC1CCOc2c(S(N)(=O)=NC(=O)Nc3c4c(cc5c3CCC5)CCC4)cnn2C1 (single isomer, unassigned) [Example 110]",120 nM
10,"CC1CCn2ncc(S(N)(=O)=NC(=O)Nc3c4c(cc5c3CCC5)CCC4)c2OC1 (single isomer, unassigned) [Example 75]",15000 nM
11,"COC1COc2c(S(N)(=O)=NC(=O)Nc3c4c(cc5c3C(C)CC5)CCC4)cnn2C1 (single isomer, unassigned) [Example 149]",650 nM
12,"COC1CCOc2c(S(N)(=O)=NC(=O)Nc3c4c(cc5c3CCC5)CCC4)cnn2C1 (single isomer, unassigned) [Example 88]",7700 nM
13,"CNC1CCOc2c(S(N)(=O)=NC(=O)Nc3c4c(cc5c3CCC5)CCC4)cnn2C1 (single isomer, unassigned) [Example 106]",150 nM
14,"CC1(C)COc2c(S(N)(=O)=NC(=O)Nc3c4c(cc5c3CCC5)CCC4)cnn2C1 (single isomer, unassigned) [Example 80]",4500 nM
15,"CC1CCc2cc3c(c(NC(=O)N=S(N)(=O)c4cnn5c4OCCC5)c21)CCC3 (single isomer, unassigned) [Example 126]",> 20000 nM
16,"CNCCOc1cc(C(C)C)c(NC(=O)N=S(N)(=O)c2cnn3c2OCCC3)c(C(C)C)n1 (single isomer, unassigned) [Example 71]",> 20000 nM
17,"CNCCOc1cc(C(C)C)c(NC(=O)N=S(N)(=O)c2cnn3c2OCCC3)c(C(C)C)n1 (single isomer, unassigned) [Example 70]",> 20000 nM
18,"CC1CCc2cc3c(c(NC(=O)N=S(N)(=O)c4cnn5c4OCC5)c21)CCC3 (single isomer, unassigned) [Example 143]",1200 nM
19,"CO[C@H]1CCOc2c([S@](=O)(=NC(=O)Nc3c4c(cc5c3CCC5)CCC4)NC#N)cnn2C1 (single isomer, unassigned) [Example 123]",120 nM
20,"CC(C)c1nn(CC(F)F)c(C(C)C)c1NC(=O)N=S(N)(=O)c1cnn2c1OCCC2 (single isomer, unassigned) [Example 96]",> 20000 nM
21,"CC1CCc2cc3c(c(NC(=O)N=S(N)(=O)c4cnn5c4OCCC5)c21)CCC3 (single isomer, unassigned) [Example 127]",3300 nM
22,"NS(=O)(=NC(=O)Nc1c2c(cc3c1CCC3)CCC2)c1cnn2c1OCC2 (single isomer, unassigned) [Example 124]",54 nM
23,"CC1CCc2cc3c(c(NC(=O)N=S(N)(=O)c4cnn5c4OCC(C)(C)C5)c21)CCC3 (single isomer, unassigned) [Example 138]",790 nM
